Results taken from patent US20090105278A1, “Selective inhibitors of human corticosteroid syntheses” (Universitat Des Saarlandes, priority 2004, published 2009).
Structures can show the parent of a compound that is named as a salt. Where two headings read alike, the source gives them in different places.

Legend:
human CYP11B2 = molecular target: T1, human CYP11B2 (Homo sapiens, UniProt P19099); experiment: Screening test in transgenic fission yeast (S. pombe PE1) expressing human CYP11B2; format: cell-based; parameters: expressed in transfected cells
T1 sequence (P19099 25-503): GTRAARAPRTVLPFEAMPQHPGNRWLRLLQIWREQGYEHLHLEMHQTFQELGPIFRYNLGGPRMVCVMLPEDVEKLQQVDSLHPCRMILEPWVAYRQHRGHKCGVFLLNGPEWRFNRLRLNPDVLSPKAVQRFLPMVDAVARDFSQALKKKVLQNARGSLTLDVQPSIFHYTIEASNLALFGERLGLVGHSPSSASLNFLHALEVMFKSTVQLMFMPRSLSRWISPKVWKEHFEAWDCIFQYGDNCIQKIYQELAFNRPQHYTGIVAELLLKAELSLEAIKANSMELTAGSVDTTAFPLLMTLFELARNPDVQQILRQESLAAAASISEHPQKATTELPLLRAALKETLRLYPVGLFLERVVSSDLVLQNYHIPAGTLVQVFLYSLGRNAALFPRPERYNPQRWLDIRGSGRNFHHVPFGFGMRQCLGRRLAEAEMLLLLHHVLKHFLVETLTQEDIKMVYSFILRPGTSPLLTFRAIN
In short: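 Deoxycorticosterone conversion to corticosterone, 18-hydroxycorticosterone and aldosterone assessed after EtOAc extraction by HPTLC with 14C phosphorimaging. Conversion rate calculated from quantified steroid spots.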

human CYP17 = molecular target: T2, human CYP17 (Homo sapiens, UniProt P05093); experiment: Percent inhibition of CYP17 (membrane fraction of E. coli pJL17/OR); format: biochemical; details: E. coli which expresses human CYP17, 5 mg/ml protein, progesterone substrate 2.5 μM, inhibitor 2.5 μM; for inhibition at 2.5 µM: read-out: % Inhibition human CYP17
T2 construct: made in house; host or cells: E. coli pJL17/OR (membrane fraction)
T2 sequence (P05093 1-508): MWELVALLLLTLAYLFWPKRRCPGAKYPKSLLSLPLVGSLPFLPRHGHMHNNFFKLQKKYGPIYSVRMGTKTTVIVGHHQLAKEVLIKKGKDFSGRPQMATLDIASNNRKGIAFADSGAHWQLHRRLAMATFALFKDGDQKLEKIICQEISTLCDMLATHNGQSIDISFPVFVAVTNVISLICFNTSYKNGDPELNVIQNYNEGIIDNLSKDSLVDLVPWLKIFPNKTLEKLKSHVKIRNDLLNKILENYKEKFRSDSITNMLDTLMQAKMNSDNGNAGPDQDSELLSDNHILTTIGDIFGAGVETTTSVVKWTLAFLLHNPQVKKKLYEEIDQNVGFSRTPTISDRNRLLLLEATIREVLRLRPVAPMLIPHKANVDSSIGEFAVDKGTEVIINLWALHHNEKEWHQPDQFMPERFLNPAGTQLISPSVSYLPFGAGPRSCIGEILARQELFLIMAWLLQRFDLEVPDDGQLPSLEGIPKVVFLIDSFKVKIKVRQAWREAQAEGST
In short: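 Membranes were isolated from E. coli pJL17/OR, which coexpresses human CYP17 with rat NADPH-P450-reductase, by lysozyme treatment, sonication and centrifugation at 50,000 g, then stored at −70° C. Reactions were started with diluted membrane suspension (0.8 to 1 mg of protein per ml), incubated at 37° C for 30 min, extracted with EtOAc and analyzed by HPLC. Inhibition was calculated from reduced substrate conversion versus DMSO controls.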

[1] = read-out: % Inhibition human hCYP11B2
[2] = S. pombe cells which express human CYP11B2, deoxycorticosterone substrate 100 nM, inhibitor 500 nM, read-out: % Inhibition human hCYP11B2
[3] = S. pombe cells which express human CYP11B2, deoxycorticosterone substrate 100 nM, inhibitor 500 nM

Row | inhibition at 2.5 µM (human CYP17) [%] | inhibition at 0.5 µM (human CYP11B2; [2]) [%] | Molecule | further results
1 | 26 | 75 | Clc1ccc2c(c1)CC/C2=C\c1cccnc1 [Compound 7a, 3-[(E)-(5-Chloro-2.3-dihydro-1H-indane-1-ylidene)methyl]pyridine Hydrochloride] | 
2 | 13 | 67 | CCOc1ccc2c(c1)CC/C2=C\c1cccnc1 [Compound 19a, 3-[(E)-(5-Ethoxy-2,3-dihydro-1H-indane-1-ylidene)methyl]pyridine Hydrochloride] | 
3 | 16 | 60 | Brc1ccc2c(c1)CC/C2=C\c1cccnc1 [Compound 9a, 3-[(E)-(5-Bromo-2,3-dihydro-1H-indane-1-ylidene)methyl]pyridine Hydrochloride] | 
4 | 28 | 68 | Clc1ccc2c(c1)CC/C2=C/c1cccnc1 [Compound 7b, 3-[(Z)-(5-Chloro-2,3-dihydro-1H-indane-1-ylidene)methyl]pyridine Hydrochloride] | 
5 |  |  | 5-[(E)-(6-Chloro-3,4-dihydronaphth-1(2H)-ylidene)methyl]-1H-imidazolium chloride [Compound 46a] | % Inhibition human hCYP11B2 (human CYP11B2; [3]): 48%; % Inhibition human CYP17 (human CYP17): 24%
6 |  |  | C(=C1\CCc2ccccc21)/c1cccnc1.Cl [Compound 1b, 3-[(Z)-2,3-Dihydro-1H-indane-1-ylidenemethyl]pyridine Hydrochloride] | % Inhibition human hCYP11B2 (human CYP11B2; [3]): 83%; % Inhibition human CYP17 (human CYP17): 33%
7 | 40 | 52 | Cc1cccc2c1CC/C2=C\c1cccnc1 [Compound 23a, 3-[(E)-(4-Methyl-2,3-dihydro-1H-indane-1-ylidene)methyl]pyridine Hydrochloride] | 
8 | 65 | 91 | Fc1ccc2c(c1)CC/C2=C/c1cccc2cnccc12 [Compound 30b, 5-[(Z)-(5-Fluoro-2,3-dihydro-1H-indane-1-ylidene)methyl]isoquinoline Hydrochloride] | 
9 | 9 | 70 | C(=C1/CCCc2ccccc21)/c1cccnc1.Cl [Compound 3a, 3-[(E)-3,4-Dihydronaphthalene-1(2H)-ylidenemethyl]pyridine Hydrochloride] | 
10 | 57 | 60 | Fc1ccc2c(c1)CC/C2=C\c1cccc2cnccc12 [Compound 30a, 5-[(E)-(5-Fluoro-2,3-dihydro-1H-indane-1-ylidene)methyl]isoquinoline Hydrochloride] | 
11 | 32 | 83 | Clc1cccc2c1CC/C2=C/c1cccnc1 [Compound 25b, 3-[(Z)-(4-Chloro-2,3-dihydro-1H-indane-1-ylidene)methyl]pyridine Hydrochloride] | 
12 | 24 | 68 | C(=C1\CCCc2ccccc21)/c1cccnc1.Cl [Compound 3b, 3-[(Z)-3,4-Dihydronaphthalene-1(2H)-ylidenemethyl]pyridine Hydrochloride] | 
13 | 24 | 58 | Brc1ccc2c(c1)CC/C2=C/c1cccnc1 [Compound 9b, 3-[(Z)-(5-Bromo-2,3-dihydro-1H-indane-1-ylidene)methyl]pyridine Hydrochloride] | 
14 |  |  | 5-[(Z)-(5-Chloro-2,3-dihydro-1H-indene-1-ylidene)methyl]-1H-imidazolium oxalate [Compound 48b] | % Inhibition human hCYP11B2 (human CYP11B2; [3]): 80%; % Inhibition human CYP17 (human CYP17): 26%
15 |  |  | 5-[(Z)-(5-Bromo-2,3-dihydro-1H-indene-1-ylidene)methyl]-1H-imidazolium oxalate [Compound 49b] | % Inhibition human hCYP11B2 (human CYP11B2; [3]): 76%; % Inhibition human CYP17 (human CYP17): 15%
16 | 36 | 79 | COc1ccc2c(c1)CC/C2=C\c1cccnc1 [Compound 11a, 3-[(E)-(5-Methoxy-2,3-dihydro-1H-indane-1-ylidene)methyl]pyridine Hydrochloride] | 
17 | 14 | 92 | Clc1cccc2c1CC/C2=C\c1cccnc1 [Compound 25a, 3-[(E)-(4-Chloro-2,3-dihydro-1H-indane-1-ylidene)methyl]pyridine Hydrochloride] | 
18 | 18 |  | C(=C1\CCc2ccccc21)/c1ccncc1 [Compound 2b, 4-[(Z)-2,3-Dihydro-1H-indane-1-ylidenemethyl]pyridine oxalate] | 
19 | 6 | 72 | Fc1ccc2c(c1)CC/C2=C\c1cncnc1 [Compound 28a, 5-[(E)-(5-Fluoro-2,3-dihydro-1H-indane-1-ylidene)methyl]pyrimidine Hydrochloride] | 

Row | Molecule | inhibition at 2.5 µM (human CYP17) [%] | inhibition at 0.5 µM (human CYP11B2; [2]) [%] | further results
20 | Fc1ccc2c(c1)CC/C2=C\c1ccncc1 [Compound 6a, 4-[(E)-(5-Fluoro-2,3-dihydro-1H-indane-1-ylidene)methyl]pyridine Hydrochloride] | 15 |  | inhibition at 0.5 µM (human CYP11B2; [1]): 37%
21 | Cl.Clc1ccc2c(c1)CC/C2=C\c1cnc[nH]1 [Compound 48a, 5-[(E)-(5-Chloro-2,3-dihydro-1H-indene-1-ylidene)methyl]-1H-imidazolium chloride] | 37 | 79 | 
22 | Fc1ccc2c(c1)CC/C2=C/c1cccnc1 [Compound 5b, 3-[(Z)-(5-Fluoro-2,3-dihydro-1H-indane-1-ylidene)methyl]pyridine Hydrochloride] | 16 |  | inhibition at 0.5 µM (human CYP11B2; [1]): 89%; inhibition at 0.5 µM (human CYP11B2; read-out: S. pombe PE1 CYP11B2 DOC % inhibition): 88.6%
23 | Brc1ccc2c(c1)CC/C2=C\c1ccncc1 [Compound 10a, 4-[(E)-(5-Bromo-2,3-dihydro-1H-indane-1-ylidene)methyl]pyridine Hydrochloride] | 24 |  | inhibition at 0.5 µM (human CYP11B2; [1]): 17%
24 | Brc1ccc2c(c1)CC/C2=C\c1cnc[nH]1.Cl [Compound 49a, 5-[(E)-(5-Bromo-2,3-dihydro-1H-indene-1-ylidene)methyl]-1H-imidazolium chloride] | 13 | 68 | 
25 | C(=C1\CCc2ccccc21)/c1cnc[nH]1 [Compound 42b, 5-[(Z)-2,3-Dihydro-1H-ind-1-ylidenemethyl]-1H-imidazolium oxalate] | 1 | 81 | 
26 | Fc1ccc2c(c1)CC/C2=C/c1ccncc1 [Compound 6b, 4-[(Z)-(5-Fluoro-2,3-dihydro-1H-indane-1-ylidene)methyl]pyridine Hydrochloride] | 29 |  | inhibition at 0.5 µM (human CYP11B2; [1]): 77%
27 | Fc1ccc2c(c1)CC/C2=C\c1cccnc1 [Compound 5a, 3-[(E)-(5-Fluoro-2,3-dihydro-1H-indane-1-ylidene)methyl]pyridine Hydrochloride] | 17 | 88 | 
28 | C(=C1/CCc2ccccc21)/c1cnc[nH]1 [Compound 42a, 5-[(E)-2,3-Dihydro-1H-indane-1-ylidenemethyl]-1H-imidazole] | 11 | 77 | 
29 | Clc1ccc2c(c1)CC/C2=C\c1ccncc1 [Compound 8a, 4-[(E)-(5-Chloro-2,3-dihydro-1H-indane-1-ylidene)methyl]pyridine Hydrochloride] | 18 |  | inhibition at 0.5 µM (human CYP11B2; [1]): 38%
30 | C(=C1/CCCc2ccccc21)/c1cnc[nH]1 [Compound 41a, 5-[(E)-3,4-Dihydronaphth-1(2H)-ylidenemethyl]-1H-imidazole] | 13 | 80 | 
